The assay deals with T1, PSMA-expressing LNCaP cells (Homo sapiens, UniProt Q04609).
T1 construct: PSMA-expressing LNCaP cells; endogenous in cells; host or cells: LNCaP
Kind of assay: Binding competition assay against 3H-PSMA-617 on LNCaP cells. An outline of the steps:
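Compounds added to LNCaP cells in growth medium, 2 h at 37 °C, 5% CO2. After two ice-cold PBS washes, cells lysed in 0.3 M NaOH and bound radioactivity measured by liquid scintillation counting.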

[1] abbreviates: LNCaP cells, 10 nM 3H-PSMA-617, competing non-radiolabeled compound 10 nM, 2 h at 37° C., triplicates.
Where [2] appears, read: LNCaP cells, 10 nM 3H-PSMA-617, competing non-radiolabeled compound 100 nM, 2 h at 37° C., triplicates.

T1 sequence (Q04609 whole entry): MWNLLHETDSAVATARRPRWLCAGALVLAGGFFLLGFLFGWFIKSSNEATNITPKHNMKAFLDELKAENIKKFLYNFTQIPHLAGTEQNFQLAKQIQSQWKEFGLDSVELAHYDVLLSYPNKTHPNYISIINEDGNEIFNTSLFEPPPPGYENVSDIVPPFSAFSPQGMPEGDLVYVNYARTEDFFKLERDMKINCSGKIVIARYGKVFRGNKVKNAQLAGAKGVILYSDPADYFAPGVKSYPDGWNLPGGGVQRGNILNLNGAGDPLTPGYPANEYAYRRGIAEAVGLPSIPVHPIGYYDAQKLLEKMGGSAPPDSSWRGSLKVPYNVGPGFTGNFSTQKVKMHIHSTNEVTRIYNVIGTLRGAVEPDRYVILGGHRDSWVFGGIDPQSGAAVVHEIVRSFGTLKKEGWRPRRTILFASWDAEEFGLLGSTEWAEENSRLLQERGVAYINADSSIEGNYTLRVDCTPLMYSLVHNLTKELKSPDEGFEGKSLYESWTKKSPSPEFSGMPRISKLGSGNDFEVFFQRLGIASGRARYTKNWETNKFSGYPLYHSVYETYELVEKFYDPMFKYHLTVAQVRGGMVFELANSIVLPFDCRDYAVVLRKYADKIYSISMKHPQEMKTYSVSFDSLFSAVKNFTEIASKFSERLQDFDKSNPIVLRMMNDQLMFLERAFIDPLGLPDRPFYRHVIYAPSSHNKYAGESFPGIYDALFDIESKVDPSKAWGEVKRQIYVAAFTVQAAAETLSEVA

With `CNCC[C@H]1CC[C@H](C(=O)N[C@H](Cc2cc(OC)c3ccccc3c2)C(=O)NCCCC[C@H](NC(=O)N[C@@H](CCC(=O)O)C(=O)O)C(=O)O)CC1` [Example 35-A, (3R,10S,14S)-3-[(4-methoxynaphthalen-2-yl)methyl]-1-{(1r,4S)-4-[2-(methylamino)ethyl]cyclohexyl}-1,4,12-trioxo-2,5,11,13-tetraazahexadecane-10,14,16-tricarboxylic acid], under setting [1], the remaining activity at 0.01 µM was 113%. The remaining activity at 0.1 µM under setting [2] was found to be 60%.
Take `NCc1ccc(C(=O)N[C@@H](Cc2ccc3ccccc3n2)C(=O)NCCCC[C@H](NC(=O)N[C@@H](CCC(=O)O)C(=O)O)C(=O)O)nc1` [Example 34-A, N^6—{N-[5-(aminomethyl)pyridine-2-carbonyl]-3-(quinolin-2-yl)-L-alanyl}-N^2-{[(1S)-1,3-dicarboxypropyl]carbamoyl}-L-lysine]: under setting [1], the remaining activity at 0.01 µM was 50%. Further, under setting [2], the remaining activity at 0.1 µM was 9%. In addition, the “competition against 3H-PSMA-617 on PSMA-expressing LNCaP cells (in words)” value (comparison between examples) was “improved competition”.
As to `O=C(O)CC[C@H](NC(=O)N[C@@H](CCCCNC(=O)[C@H](Cc1ccc2ccccc2c1)NC(=O)[C@H]1CC[C@H](CNC(=O)CN2CCN(CC(=O)O)CCN(CC(=O)O)CCN(CC(=O)O)CC2)CC1)C(=O)O)C(=O)O` [PSMA-617, reference compound], the “Non-specific binding: remaining binding of 3H-PSMA-617 in the presence of unlabeled PSMA-617” value (unlabeled PSMA-617 at 5000 nM (500 fold excess), LNCaP cells) is listed as “below 5%”.
As to `NC[C@H]1CC[C@H](C(=O)N[C@@H](Cc2ccc3ncccc3c2)C(=O)NCCCC[C@H](NC(=O)N[C@@H](CCC(=O)O)C(=O)O)C(=O)O)CC1` [Example 48-A, (3S,10S,14S)-1-[trans-4-(aminomethyl)cyclohexyl]-1,4,12-trioxo-3-[(quinolin-6-yl)methyl]-2,5,11,13-tetraazahexadecane-10,14,16-tricarboxylic acid], the remaining activity at 0.01 µM under setting [1] came to 73%. Besides, the remaining activity at 0.1 µM under setting [2] is 74%.
In the same order, the values of `NC[C@H]1CC[C@H](C(=O)N[C@@H](Cc2cc(F)c(F)c(F)c2)C(=O)NCCCC[C@H](NC(=O)N[C@@H](CCC(=O)O)C(=O)O)C(=O)O)CC1` [Example 6-A, N^6—{N-[(1r,4S)-4-(aminomethyl)cyclohexane-1-carbonyl]-3,4,5-trifluoro-L-phenylalanyl}-N^2-{[(1S)-1,3-dicarboxypropyl]carbamoyl}-L-lysine] are 98% and 86%.
In the same order, the values of `NC[C@H]1CC[C@H](C(=O)N[C@H](Cc2ccc3ccncc3c2)C(=O)NCCCC[C@H](NC(=O)N[C@@H](CCC(=O)O)C(=O)O)C(=O)O)CC1` [Example 42-A, (3R,10S,14S)-1-[(1r,4S)-4-(aminomethyl)cyclohexyl]-3-[(isoquinolin-7-yl)methyl]-1,4,12-trioxo-2,5,11,13-tetraazahexadecane-10,14,16-tricarboxylic acid] are 86% and 78%.
Take `O=C(O)CC[C@H](NC(=O)N[C@@H](CCCCNC(=O)[C@H](Cc1ccc2ccccc2c1)NC(=O)[C@H]1CC[C@H](CNC(=O)COCC(=O)NCCOCCOCCOCCOCCOCCOCCOCCOCCOCCOCCOCCNC(=O)COCC(=O)Nc2ccc(CC(CN(CCNC(=O)c3ccn(CCO)c(=O)c3O)CCNC(=O)c3ccn(CCO)c(=O)c3O)CN(CCNC(=O)c3ccn(CCO)c(=O)c3O)CCNC(=O)c3ccn(CCO)c(=O)c3O)cc2)CC1)C(=O)O)C(=O)O` [Example 1-PEG]: the “% remaining 3H-PSMA-617 @ 10 nM (mean)” value under setting [1] is 80%. In addition, the “% remaining 3H-PSMA-617 @ 100 nM (mean)” value under setting [2] was 41%.
As to `Cn1ccc(C(=O)NCCN(CCNC(=O)c2ccn(C)c(=O)c2O)CC(Cc2ccc(NC(=O)CCC(=O)N[C@H](CCCNC(=N)N)C(=O)N[C@H](CCCNC(=N)N)C(=O)NC[C@H]3CC[C@H](C(=O)N[C@@H](Cc4ccc5ccccc5c4)C(=O)NCCCCC(NC(=O)N[C@@H](CCC(=O)O)C(=O)O)C(=O)O)CC3)cc2)CN(CCNC(=O)c2ccn(C)c(=O)c2O)CCNC(=O)c2ccn(C)c(=O)c2O)c(O)c1=O` (stereo partly drawn) [Example 46-E], the remaining activity at 0.01 µM under setting [1] was 78%. The remaining activity at 0.1 µM under setting [2] amounted to 66%.
In the same order, the values of `Cc1ccccc1C[C@H](NC(=O)[C@H]1CC[C@H](CN)CC1)C(=O)NCCCC[C@H](NC(=O)N[C@@H](CCC(=O)O)C(=O)O)C(=O)O` [Example 12-A, N^6—{N-[(1r,4S)-4-(aminomethyl)cyclohexane-1-carbonyl]-2-methyl-L-phenylalanyl}-N^2-{[(1S)-1,3-dicarboxypropyl]carbamoyl}-L-lysine] are 158% and 128%.
In the same order, the values of `O=C(O)CC[C@H](NC(=O)N[C@@H](CCCCNC(=O)[C@H](Cc1ccc2ccccc2c1)NC(=O)c1ccc(CNC(=O)CN2CCN(CC(=O)O)CCN(CC(=O)O)CCN(CC(=O)O)CC2)cc1)C(=O)O)C(=O)O` [Example 24-B, (3S,10S,14S)-3-[(naphthalen-2-yl)methyl]-1,4,12-trioxo-1-[4-({2-[4,7,10-tris(carboxymethyl)-1,4,7,10-tetraazacyclododecan-1-yl]acetamido}methyl)phenyl]-2,5,11,13-tetraazahexadecane-10,14,16-tricarboxylic acid] are 59% and 6%.
`O=C(O)CC[C@H](NC(=O)N[C@@H](CCCCNC(=O)[C@H](Cc1ccc2ccccc2c1)NC(=O)c1cccc(CNC(=O)CN2CCN(CC(=O)O)CCN(CC(=O)O)CCN(CC(=O)O)CC2)c1)C(=O)O)C(=O)O` [Example 27-B, (3S,10S,14S)-3-[(naphthalen-2-yl)methyl]-1,4,12-trioxo-1-[3-({2-[4,7,10-tris(carboxymethyl)-1,4,7,10-tetraazacyclododecan-1-yl]acetamido}methyl)phenyl]-2,5,11,13-tetraazahexadecane-10,14,16-tricarboxylic acid]: under setting [1], the remaining activity at 0.01 µM amounted to 54%. Further, under setting [2], the remaining activity at 0.1 µM turned out to be 6%.
In the same order, the values of `NCc1ccc(C(=O)N[C@@H](Cc2ccc3ncccc3c2)C(=O)NCCCC[C@H](NC(=O)N[C@@H](CCC(=O)O)C(=O)O)C(=O)O)nc1` [Example 49-A, (3S,10S,14S)-1-[5-(aminomethyl)pyridin-2-yl]-1,4,12-trioxo-3-[(quinolin-6-yl)methyl]-2,5,11,13-tetraazahexadecane-10,14,16-tricarboxylic acid] are 65% and 44%.
In the same order, the values of `NC[C@H]1CC[C@H](C(=O)N[C@@H](CCCCNC(N)=O)C(=O)NCCCC[C@H](NC(=O)N[C@@H](CCC(=O)O)C(=O)O)C(=O)O)CC1` [Example 5-A, N^6—{N^2-[(1r,4S)-4-(aminomethyl)cyclohexane-1-carbonyl]-N^6-carbamoyl-L-lysyl}-N^2-{[(1S)-1,3-dicarboxypropyl]carbamoyl}-L-lysine] are 109% and 112%.
In the same order, the values of `NC[C@H]1CC[C@H](C(=O)N[C@@H](Cc2ccc(F)cc2)C(=O)NCCCC[C@H](NC(=O)N[C@@H](CCC(=O)O)C(=O)O)C(=O)O)CC1` [Example 7-A, N^6—{N-[(1r,4S)-4-(aminomethyl)cyclohexane-1-carbonyl]-4-fluoro-L-phenylalanyl}-N^2-{[(1S)-1,3-dicarboxypropyl]carbamoyl}-L-lysine] are 106% and 93%.
Consider `O=C(O)CC[C@H](NC(=O)N[C@@H](CCCCNC(=O)[C@H](Cc1ccc2ccccc2c1)NC(=O)[C@H]1CC[C@H](CNC(=S)Nc2ccc(CC(CN(CCNC(=O)c3ccn(CCO)c(=O)c3O)CCNC(=O)c3ccn(CCO)c(=O)c3O)CN(CCNC(=O)c3ccn(CCO)c(=O)c3O)CCNC(=O)c3ccn(CCO)c(=O)c3O)cc2)CC1)C(=O)O)C(=O)O` [Example 1-F, (3S,10S,14S)-1-{(1r,4S)-4-[({[4-(3-[bis(2-{[3-hydroxy-1-(2-hydroxyethyl)-2-oxo-1,2-dihydropyridine-4-carbonyl]amino}ethyl)amino]-2-{[bis(2-{[3-hydroxy-1-(2-hydroxyethyl)-2-oxo-1,2-dihydropyridine-4-carbonyl]amino}ethyl)amino]methyl}propyl)phenyl]carbamothioyl}amino)methyl]cyclohexyl}-3-[(naphthalen-2-yl)methyl]-1,4,12-trioxo-2,5,11,13-tetraazahexadecane-10,14,16-tricarboxylic acid], for which the remaining activity at 0.01 µM under setting [1] was 71%. Further, the remaining activity at 0.1 µM under setting [2] came to 21%.
On to `CC(C)(C)c1ccc(C[C@H](NC(=O)[C@H]2CC[C@H](CN)CC2)C(=O)NCCCC[C@H](NC(=O)N[C@@H](CCC(=O)O)C(=O)O)C(=O)O)cc1` [Example 8-A, N^6—{N-[(1r,4S)-4-(aminomethyl)cyclohexane-1-carbonyl]-4-tert-butyl-L-phenylalanyl}-N^2-{[(1S)-1,3-dicarboxypropyl]carbamoyl}-L-lysine], for which the remaining activity at 0.01 µM under setting [1] was found to be 92%. Moreover, the remaining activity at 0.1 µM under setting [2] was 111%.
Take `NC[C@H]1CC[C@H](C(=O)N[C@@H](Cc2ccc(C3CCC3)cc2)C(=O)NCCCC[C@H](NC(=O)N[C@@H](CCC(=O)O)C(=O)O)C(=O)O)CC1` [Example 18-A, N^6—{N-[(1r,4S)-4-(aminomethyl)cyclohexane-1-carbonyl]-4-cyclobutyl-L-phenylalanyl}-N^2-{[(1S)-1,3-dicarboxypropyl]carbamoyl}-L-lysine]: the remaining activity at 0.01 µM under setting [1] turned out to be 78%. In addition, the remaining activity at 0.1 µM under setting [2] worked out at 79%.
For the compound `NC[C@H]1CC[C@H](C(=O)N[C@@H](Cc2cc3ccccc3cn2)C(=O)NCCCC[C@H](NC(=O)N[C@@H](CCC(=O)O)C(=O)O)C(=O)O)CC1` [Example 36-A, N^6—{N-[(1r,4S)-4-(aminomethyl)cyclohexane-1-carbonyl]-3-(isoquinolin-3-yl)-L-alanyl}-N^2-{[(1S)-1,3-dicarboxypropyl]carbamoyl}-L-lysine], the remaining activity at 0.01 µM under setting [1] stood at 98%. In addition, the remaining activity at 0.1 µM under setting [2] worked out at 73%.

As usually defined, the remaining activity is the signal under treatment as a percentage of the control signal.

Source of the values: US20230072421A1, “TARGETED RADIOPHARMACEUTICALS FOR THE DIAGNOSIS AND TREATMENT OF PROSTATE CANCER” (Bayer AS, priority 2019, published 2023).
